From article PMC11148080, “Ru(II)-based complexes containing 2-thiouracil derivatives suppress liver cancer stem cells by targeting NF-κB and Akt/mTOR signaling” (Cell Death Discovery, 2024)

Assays:
[1] = test system: HepG2 cells; test: Annexin V-FITC/PI apoptosis detection; format: cell-based, human; settings: for apoptosis (annexin V-FITC+ cells): HepG2, 72 h, control 4.8%; for percentage of necrotic cells: 24, 48, 72 h
Experimental: For apoptosis detection, cell viability was quantified using Annexin V-FITC/PI (FITC Annexin V Apoptosis Detection Kit I, BD Biosciences, San Jose, CA, USA) according to the manufacturer’s instructions. The cells were also stained with rhodamine 123 (5 μg/mL, Sigma Aldrich Co.) for 15 min at 37 °C in the dark to assess the mitochondrial transmembrane potential. After the cells were washed, they were incubated in saline for 30 min in the dark at 37 °C and analyzed by flow cytometry. For all flow cytometry analyses, cellular fluorescence was measured using a BD LSRFortessa cytometer, BD FACSDiva software (BD Biosciences) and FlowJo software 10 (FlowJo LLC; Ashland, OR, USA). A minimum of 10,000 events were obtained per sample for intracellular staining, and a minimum of 30,000 events per sample were acquired for cell surface protein staining. Doublets were removed using FSC-A vs FCS-H and SCC-A vs SCC-H. Cellular debris was excluded from the analysis.

[2] = test system: B16-F10; test: Alamar Blue cytotoxicity; format: cell-based, mouse; settings: for IC50: B16-F10, 72 h
Experimental: (§1) The Alamar Blue assay was used to measure cell viability, as previously described. Adherent cells were seeded in 96-well plates at a density of 7 × 10^3 cells per well, and suspended cells were seeded at 3 × 10^4 cells per well. Drugs were added to each well after overnight incubation for adherent cells or immediately after seeding for suspension cells, and incubation continued for an additional 72 h. The positive control included doxorubicin (Laboratorio IMA S.A.I.C., Buenos Aires, Argentina). Four hours (for cell lines) or 24 h (for primary cultures) before the end of incubation, 20 μL of resazurin (30 μM) (Sigma‒Aldrich Co. St. Louis, MO, USA) was added to each well. The absorbance at 570 and 600 nm was measured using a SpectraMax 190 microplate reader (Molecular Devices, Sunnyvale, CA, USA).

[3] = test system: 4T1; test: Alamar Blue cytotoxicity; format: cell-based, mouse; settings: for IC50: 4T1, 72 h
Experimental: as §1

[4] = test system: HepG2 cell xenografts; test: HCC tumor growth xenograft model; format: in vivo, C.B-17 SCID mice; settings: 21 days; for mean tumor weight: negative control 981 mg
Experimental: A total of 48 C.B-17 SCID mice (male and female, 20–25 g) were obtained from the FIOCRUZ-BA animal facility (Salvador, Bahia, Brazil) in accordance with experimental methods authorized by the local Animal Ethics Committee (#22/2021). All mice were fed a standard pellet diet (food and water available ad libitum) and housed in an artificially lit room (12 h dark/light cycle).
HepG2 cells (10^7 cells/500 μL) were implanted subcutaneously into the left front armpit of mice as previously described. The mice were administered intraperitoneally (200 μL/animal) once a day for 3 weeks. […] The animals were euthanized with an anesthetic overdose (thiopental, 100 mg/kg) 1 day after treatment, and the tumors were removed, weighed, and processed for histological examination.

[5] = test system: PBMC; test: Alamar Blue cytotoxicity, noncancerous cells; format: cell-based, human; settings: 72 h
Experimental: as §1, with “USA). […]” for “USA).”
PBMC heath peripheral blood mononuclear human primary cell […]
Then, the PBMCs were resuspended in RPMI 1640 or DMEM-F12 supplemented with 20% FBS and 1% antibiotics. The cells were plated at 5 × 10^5 cells/well. Concanavalin A (10 μg/mL, Sigma‒Aldrich) was used as a mitogen to trigger cell division in T lymphocytes and was added at the beginning of the culture. The Research Ethics Committee of the Oswaldo Cruz Foundation

[6] = test system: HepG2 cells; test: Light scattering (FSC/SSC) by flow cytometry; format: cell-based, human; settings: 24, 48, 72 h
Text: Light scattering characteristics measured by flow cytometry were used to analyze cellular parameters such as size and complexity/granularity in HepG2 cells treated with complexes 1 and 2 (Fig. S6A–S6F). Forward light scattering (FSC) was employed as a cell size metric in this experiment, while side scattering (SSC) was used to determine cell complexity/granularity. […] Both morphological changes are associated with cellular apoptosis, corroborating the findings observed in cells stained with May-Grunwald-Giemsa.
(§2) For all flow cytometry analyses, cellular fluorescence was measured using a BD LSRFortessa cytometer, BD FACSDiva software (BD Biosciences) and FlowJo software 10 (FlowJo LLC; Ashland, OR, USA). A minimum of 10,000 events were obtained per sample for intracellular staining, and a minimum of 30,000 events per sample were acquired for cell surface protein staining. Doublets were removed using FSC-A vs FCS-H and SCC-A vs SCC-H. Cellular debris was excluded from the analysis.

[7] = Toxicity parameters in xenografted mice; format: in vivo, C.B-17 SCID mice; settings: 2 or 4 mg/kg i.p., 21 days; for changes in body weight or organs (liver, kidney, lung, heart): P > 0.05; for histopathological changes in the hearts: data not shown
Text: All animals were weighed at the start and end of the experiment to assess toxicological aspects. The animals were continuously examined for anomalies during the trial. The livers, kidneys, lungs, and hearts were removed and weighed before being preserved in 4% formaldehyde, dehydrated in a graded alcohol series, cleaned in xylene, and embedded in paraffin wax. The tissue was sliced into 5 μm thick slices, stained with hematoxylin and/or periodic acid-Schiff (liver and kidney), and histologically evaluated via optical microscopy.

[8] = test system: HepG2 cells; test: NF-κB and Akt/mTOR signaling protein levels by flow cytometry; format: cell-based, human; settings: HepG2, 24 h; for level of Akt1 / level of phospho-4EBP1 (T36/T45) / level of phospho-Akt (S473) / level of phospho-Akt (T308) / level of phospho-PI3K p85/p55 (T458/T199) / level of phospho-elF4E (S209) / level of phospho-mTOR (S2448): 8 μM complex 1, 6 μM complex 2
Experimental: To stain intracellular proteins, the cells were harvested and resuspended in 0.5-1 mL of 4% formaldehyde for 10 min at 37 °C. The tube was then placed on ice for 1 min, after which the cells were prechilled and permeabilized using a sequence of 100% (30 min) to 90% (30 min) methanol with gentle mixing. After washing with incubation buffer (0.5% bovine serum albumin in PBS), primary antibodies were added and incubated for 1 h at room temperature. Finally, the cells were washed with PBS, and flow cytometry was used to measure cell fluorescence.
as §2

Row | Compound | percentage of necrotic cells ([1]; HepG2) | cell size/granularity (FSC decrease, SSC increase) [6] | histopathological alterations of kidneys, livers, lungs [7] | changes in body weight or organs (liver, kidney, lung, heart) [7] | histopathological changes in the hearts [7] | level of Akt1 [8] | level of phospho-4EBP1 (T36/T45) [8] | level of phospho-Akt (S473) [8] | level of phospho-Akt (T308) [8] | level of phospho-PI3K p85/p55 (T458/T199) [8] | level of phospho-elF4E (S209) [8] | level of phospho-mTOR (S2448) [8] | IC50 [2] [µM] | IC50 [3] [µM] | tumor inhibition ([4]; 2 mg/kg i.p. once a day) [%] | mean tumor weight ([4]; 2 mg/kg i.p. once a day) [mg] | tumor inhibition ([4]; 4 mg/kg i.p. once a day) [%] | mean tumor weight ([4]; 4 mg/kg i.p. once a day) [mg] | IC50 [5] [µM] | further results
1 | COc1cccc2c1C(=O)c1c(O)c3c(c(O)c1C2=O)C[C@@](O)(C(=O)CO)C[C@@H]3O[C@H]1C[C@H](N)[C@H](O)[C@H](C)O1 [Doxorubicin] | – | – | – | – | – | – | – | – | – | – | – | – | – | – | – | – | – | – | – | apoptosis ([1]; HepG2, DOX 1 μM, positive control): also led to apoptosis; Selectivity index ([2]; IC50 BJ/IC50 B16-F10): 4.30; Selectivity index ([2]; IC50 MRC-5/IC50 B16-F10): 3.95; Selectivity index ([2]; IC50 PBMC/IC50 B16-F10): 3.09; IC50 ([2]; Mus musculus): 0.43 µM; Selectivity index ([3]; IC50 BJ/IC50 4T1): 1.21; Selectivity index ([3]; IC50 MRC-5/IC50 4T1): 1.11; Selectivity index ([3]; IC50 PBMC/IC50 4T1): 0.87; IC50 ([3]; Mus musculus): 1.53 µM; tumor inhibition ([4]; 1 mg/kg i.p. once a day): 32.2%; mean tumor weight ([4]; 1 mg/kg i.p. once a day): 665 mg; IC50 ([5]; Homo sapiens): 1.33 µM
2 | F[P-](F)(F)(F)(F)F.O=c1cc[nH]c([S][Ru+])n1.c1ccc(-c2ccccn2)nc1.c1ccc(P(c2ccccc2)c2ccccc2)cc1.c1ccc(P(c2ccccc2)c2ccccc2)cc1 [Complex 1, trans-[Ru(2TU)(PPh3)2(bipy)]PF6] | no significant increase | caused cell shrinkage | minor and/or reversible | No significant changes | No significant changes | reduced | not affected | reduced | not affected | not affected | not affected | reduced | 3.04 | 11.7 | 35.3 | 635 | 53.6 | 455 | 14.2 | apoptosis (annexin V-FITC+ cells) ([1]; 2 µM): 9.0%; apoptosis (annexin V-FITC+ cells) ([1]; 4 µM): 48.9%; apoptosis (annexin V-FITC+ cells) ([1]; 8 µM): 76.1%; level of phospho-NF-κB p65 (S529) ([8]; 8 μM complex 1): reduced; level of phospho-S6 (S235/S236) ([8]; 8 μM complex 1): reduced
3 | Cc1cc(=O)nc([S][Ru+])[nH]1.F[P-](F)(F)(F)(F)F.c1ccc(-c2ccccn2)nc1.c1ccc(P(c2ccccc2)c2ccccc2)cc1.c1ccc(P(c2ccccc2)c2ccccc2)cc1 [Complex 2, trans-[Ru(6m2TU)(PPh3)2(bipy)]PF6] | no significant increase | caused cell shrinkage | minor and/or reversible | No significant changes | No significant changes | reduced | not affected | reduced | not affected | not affected | not affected | reduced | 2.75 | 4.52 | 63.6 | 358 | 65.4 | 340 | 11.7 | apoptosis (annexin V-FITC+ cells) ([1]; 1.5 µM): 9.1%; apoptosis (annexin V-FITC+ cells) ([1]; 3 µM): 40.7%; apoptosis (annexin V-FITC+ cells) ([1]; 6 µM): 76.9%
